The term melting point denotes the temperature of the solid-liquid transition.

Experimental findings from patent publication US6949542B2, “Dihydro-benzo[b][1,4]diazepin-2-one derivatives” (Hoffman-La Roche Inc., priority 2002, dated 2005) are described below.

Each structure is given as a SMILES string.

As for `Cc1cc(-c2cccc(C3=Nc4cc(C)c(Cl)cc4NC(=O)C3)c2)ncn1` [Example 309, 8-Chloro-7-methyl-4-[3-(6-methyl-pyrimidin-4-yl)-phenyl]-1,3-dihydro-benzo[b][1,4]diazepin-2-one], the melting point lay within 226 to 227 °C.

Compound `Cc1cc(-c2cccc(C3=Nc4cc(N(C)C)c(C(F)(F)F)cc4NC(=O)C3)c2)ncn1` [Example 310, 7-Dimethylamino-4-[3-(6-methyl-pyrimidin-4-yl)-phenyl]-8-trifluoromethyl-1,3-dihydro-benzo[b][1,4]diazepin-2-one] displayed a melting point of 232 to 236 °C.

`Cc1cc(-c2cccc(C3=Nc4ccc(Cl)cc4NC(=O)C3)c2)ncn1` [Example 312, 8-Chloro-4-[3-(6-methyl-pyrimidin-4-yl)-phenyl]-1,3-dihydro-benzo[b][1,4]diazepin-2-one] showed a melting point of 199 to 200 °C.

Take `Cc1cc(-c2cccc(C3=Nc4cc(Cl)c(Cl)cc4NC(=O)C3)c2)ncn1` [Example 313, 7,8-Dichloro-4-[3-(6-methyl-pyrimidin-4-yl)-phenyl]-1,3-dihydro-benzo[b][1,4]diazepin-2-one]: the melting point lay within 220 to 222 °C.

As for `Cc1cc(-c2cccc(C3=Nc4ccc(-n5cccc5)cc4NC(=O)C3)c2)ncn1` [Example 314, 4-[3-(6-Methyl-pyrimidin-4-yl)-phenyl]-8-pyrrol-1-yl-1,3-dihydro-benzo[b][1,4]diazepin-2-one], the melting point was 242 to 243 °C.

The compound `Cc1cc(-c2cccc(C3=Nc4cc(C)c(C(F)(F)F)cc4NC(=O)C3)c2)nc(N)n1` [Example 315, 4-[3-(2-Amino-6-methyl-pyrimidin-4-yl)-phenyl]-7-methyl-8-trifluoromethyl-1,3-dihydro-benzo[b][1,4]diazepin-2-one] had a melting point of 248 to 250 °C.

On to `Cc1cc(-c2cccc(C3=Nc4cc(C)c(Cl)cc4NC(=O)C3)c2)nc(N)n1` [Example 316, 4-[3-(2-Amino-6-methyl-pyrimidin-4-yl)-phenyl]-8-chloro-7-methyl-1,3-dihydro-benzo[b][1,4]diazepin-2-one], for which the melting point lay in the range of 242 to 243 °C.

Compound `Cc1cc(-c2cccc(C3=Nc4cc(N(C)C)c(C(F)(F)F)cc4NC(=O)C3)c2)nc(N)n1` [Example 317, 4-[3-(2-Amino-6-methyl-pyrimidin-4-yl)-phenyl]-7-dimethylamino-8-trifluoromethyl-1,3-dihydro-benzo[b][1,4]diazepin-2-one] returned a melting point of 250 to 253 °C.

In the case of `CNc1nc(C)cc(-c2cccc(C3=Nc4cc(C)c(C(F)(F)F)cc4NC(=O)C3)c2)n1` [Example 318, 7-Methyl-4-[3-(6-methyl-2-methylamino-pyrimidin-4-yl)-phenyl]-8-trifluoromethyl-1,3-dihydro-benzo[b][1,4]diazepin-2-one], the melting point was in the range of 241 to 243 °C.

Regarding `CNc1nc(C)cc(-c2cccc(C3=Nc4cc(C)c(Cl)cc4NC(=O)C3)c2)n1` [Example 319, 8-Chloro-7-methyl-4-[3-(6-methyl-2-methylamino-pyrimidin-4-yl)-phenyl]-1,3-dihydro-benzo[b][1,4]diazepin-2-one], the melting point is 235 to 237 °C.

`Cc1cc(-c2cccc(C3=Nc4cc(C)c(C(F)(F)F)cc4NC(=O)C3)c2)nc(N(C)C)n1` [Example 320, 4-[3-(2-Dimethylamino-6-methyl-pyrimidin-4-yl)-phenyl]-7-methyl-8-trifluoromethyl-1,3-dihydro-benzo[b][1,4]diazepin-2-one]: the melting point is 248 to 252 °C.

In turn, `Cc1cc(-c2cccc(C3=Nc4cc(C)c(Cl)cc4NC(=O)C3)c2)nc(N(C)C)n1` [Example 321, 8-Chloro-4-[3-(2-dimethylamino-6-methyl-pyrimidin-4-yl)-phenyl]-7-methyl-1,3-dihydro-benzo[b][1,4]diazepin-2-one] yielded a melting point of 248 to 250 °C.
